Test results as given in patent US20050059615A1, “Transmucosal dosage forms for brain-targeted steroid chemical delivery systems” (priority 2003, published 2005).

Legend:
ACTH = test: Suppression of stress-induced elevation of plasma ACTH (light restraint stress); assay type: in vivo, Sprague-Dawley rats
Method: (§1) Ability to suppress stress-induced ACTH and corticosterone is a measure of the anti-inflammatory action of a test substance.
(§2) Adult male Sprague-Dawley rats (Charles River Breeding Laboratories, Wilmington, Mass.) weighing 300-325 grams were selected for use in this study. The rats were housed individually in wire-bottomed cages in a climate-controlled room (23° C.) with a 12 hour light/12 hour dark cycle of artificial lighting. The animals were maintained on this light cycle for 10 days prior to the start of the experiment. Purina cat chow and tap water were provided ad libitum.
(§3) Rats then were subjected to either no stress or light restraint stress for 5 or 15 minutes on days 0, 1, 3, 5 or 7. Each experimental group consisted of six animals. For light restraint testing, the rats were placed in individual wire-mesh cages which permitted limited movement in a lateral or longitudinal direction. Nonstressed control rats were gently removed from their cages and immediately sacrificed. All animals were killed immediately at the end of the stress periods by decapitation. Trunk blood was rapidly collected in iced tubes containing EDTA, and the plasma was separated by cold centrifugation and stored at −80° C. until radioimmunoassay.
Plasma ACTH was measured in duplicate by radioimmunoassay using a double-antibody technique (Diagnostic Products Corp., Los Angeles, Calif.). The intra-assay coefficient of variation was 8.25%; and the limit of sensitivity for the assay was 17 pg/mL of plasma.
(§4) The significance of differences among mean values was determined by analysis of variance (Anova) and Student-Newman-Keuls tests. The level of probability for all tests was 0.05.

corticosterone = test: Suppression of stress-induced elevation of corticosterone (15-minute restraint stress); assay type: in vivo, Sprague-Dawley rats; conditions: 15-minute stress
Method: as §1, §2, §3
Plasma corticosterone was measured in duplicate by radioimmunoassay using a double-antibody technique (Cambridge Medical Tech., Inc., Billerica, Mass.). The intra-assay coefficient of variation was <2.63% and the interassay coefficient of variation was 7.1%. The limit of sensitivity for the assay was 0.39 ng/mL of plasma.
as §4

[1] = test system: ovariectomized female rats; test: Lordosis quotient, female rat sexual behavior after ovariectomy; assay type: in vivo, Sprague Dawley rats
Method: Adult female Sprague Dawley rats (220-250 g) from Charles River Hungary Ltd., Godollo, Hungary, were used. Animals were kept in community cages (4 animals/cage) in a climate-controlled room (23∀2EC, 50-60% humidity), with a 14 hour light, 10 hour dark cycle of artificial lighting, using reversed light/dark cycle. Food and water were available ad libitum.
After a minimum five-day acclimatization period, animals were ovariectomized under ether anesthesia, then were left to recover for 3 weeks before testing (reconvalescence). All animals were treated in accordance with the guidelines of the European Communities Council Directive (86/609/EEC) and studies were permitted by the Institutional Animal Care Commission.
Estradiol benzoate and progesterone were obtained from Sigma Chemical Co. Inc., Budapest, Hungary. 2-Hydroxypropyl-β-cyclodextrin was purchased from Cerestar Inc., Hammond, Ind., US. […] E2-CDS as a 3% complex with HPβCD (E2-CDS-CD) was dissolved in distilled water and diluted with 27% HPβCD solution. E2-CDS-CD was synthesized by Alchem Laboratories Corporation, Alachua, Fla., US, using the procedure of Example 2 above.
(§5) After recovery from surgery, ovariectomized female rats were divided into four groups and treated once a day for five days intravenously, via a bolus injection through the tail vein, as follows: (1) control, 27% HPβCD solution; (2) 0.003 mg/kg E2-CDS dissolved in 27% HPβCD solution; (3) 0.01 mg/kg E2-CDS dissolved in 27% HPβCD solution; and (4) 0.03 mg/kg E2-CDS dissolved in 27% HPβCD solution. A minimal number of ovariectomized (8 to 12) females were used per group. Intravenous treatments either with E2-CDS or HPβCD (controls) were carried out daily for 5 days beginning 2 days prior to the first day of behavior observations, in a volume of 0.05 mL/100 g body weight.
The behavior test was conducted in a plexiglass observation cage during the dark cycle. During behavioral observations, only a dim red light was on.
(§6) An experienced and active male rat was placed in the arena 5 minutes prior to the female. […] The lordosis quotient (LQ) expresses the estrogen effect on sexual receptivity and was calculated as follows: LQ=100×number of lordoses/10 mounts The observation of the sexual behavior of each female was carried out, in the case of E2-CDS, every day for 22 days; in the case of EB, investigations were carried out every day for 10 days. […] Citrated blood samples were taken by retro-orbital sinus puncture under light ether anesthesia. The samples were stored at 4EC for one hour, then centrifuged at 1000 g for 10 minutes. Plasma was separated and stored at −80EC until assayed. Plasma LH concentrations from individual samples were measured by double antibody radioimmunoassay kits obtained from Amersham Pharmacia Biotech, Rome, Italy. […] The limit of detection was 15 pg/mL.
(§7) Behavioral changes were analyzed using the Mann-Whitney U test (Siegel, Nonparametric Statistics for the Behavioral Sciences, New York; McGraw-Hill Book Company, Inc., 1956). The Fisher exact test was used for percentage comparisons (Zar, Biostatistical Analysis, Prentice Hall, Inc., Englewood Cliffs, N.J., 1974). Serum LH data were analyzed for each time and treatment group by analysis of variance (ANOVA) followed by Bonferroni posthoc test.

LH = test: Plasma LH in ovariectomized female rats (radioimmunoassay); assay type: in vivo, Sprague Dawley rats; conditions: all dosage levels tested: 0.003, 0.01 and 0.03 mg/kg i.v. daily for 5 days
Method: as §5, §6, §7

[2] = 0.003 mg/kg i.v. once a day for 5 days
[3] = 0.01 mg/kg i.v. once a day for 5 days
[4] = 0.03 mg/kg i.v. once a day for 5 days

SMILES	effect on stress-related elevations in ACTH (ACTH; 5-minute stress, days 1 and 3, single i.v. DEX-CDS 10 mg/kg or DEX 7.65 mg/kg (equimolar))	day through which suppression of ACTH elevations continued (ACTH; 5-minute stress, single i.v. DEX-CDS 10 mg/kg)	effect on stress-related rises in ACTH (ACTH; 15-minute stress, day 3, single i.v. DEX-CDS 10 mg/kg or DEX 7.65 mg/kg)	duration of suppression of elevations in ACTH (ACTH; 15-minute stress, single i.v. DEX-CDS 10 mg/kg)	suppression of corticosterone response to stress (corticosterone; day 3, single i.v. DEX-CDS 10 mg/kg or DEX 7.65 mg/kg)	suppression of corticosterone response to stress (corticosterone; day 5, single i.v. DEX-CDS 10 mg/kg)	suppression of corticosterone response to stress (corticosterone; day 7, single i.v. DEX-CDS 10 mg/kg)	effect on lordosis quotient [1, 2]	period of the LQ effect [1, 2]	statistical significance of LQ effect [1, 2]	effect on lordosis quotient LQ [1, 3]	period of the LQ effect [1, 3]	statistical significance of LQ effect [1, 3]	effect on lordosis quotient LQ [1, 4]	maximal value of lordosis quotient (LQ) [1, 4]	period over which the LQ effect lasted [1, 4]	effect on plasma LH levels (LH)
C[C@@H]1C[C@H]2[C@@H]3CCC4=CC(=O)C=C[C@]4(C)[C@@]3(F)[C@@H](O)C[C@]2(C)[C@@]1(O)C(=O)COC(=O)C1=CN(C)C=CC1 [DEX-CDS, 9-fluoro-11β,17-dihydroxy-16α-methyl-21-{[(1-methyl-1,4-dihydropyridin-3-yl)carbonyl]oxy}pregna-1,4-diene-3,20-dione]	blocked	5 days	blocked	at least 7 days	33%	37%	56%										
C[C@]12CC[C@@H]3c4ccc(OC(=O)c5ccccc5)cc4CC[C@H]3[C@@H]1CC[C@@H]2O [estradiol benzoate, reference compound]								slightly enhanced	3 to 7 days	not statistically significant	slightly increased	day 3 to day 10	not statistically significant	significantly enhanced	27.3	day 3 to day 8	none of the tested dosages of estradiol benzoate gave statistically significant LH suppression
